Laboratory results: paper PMC11945486, “TAS1R2/TAS1R3 Single-Nucleotide Polymorphisms Affect Sweet Taste Receptor Activation by Sweeteners: The SWEET Project” (Nutrients, 2025)
No end group written: not given here.

T1: human TAS1R2-I191V/TAS1R3-WT (Homo sapiens, UniProt Q7RTX0+Q8TE23, I191V)
T1 construct: expressed in transfected cells; host or cells: HEK293T-Gα16gust44
T1 sequence (Q8TE23 20-839 I191V): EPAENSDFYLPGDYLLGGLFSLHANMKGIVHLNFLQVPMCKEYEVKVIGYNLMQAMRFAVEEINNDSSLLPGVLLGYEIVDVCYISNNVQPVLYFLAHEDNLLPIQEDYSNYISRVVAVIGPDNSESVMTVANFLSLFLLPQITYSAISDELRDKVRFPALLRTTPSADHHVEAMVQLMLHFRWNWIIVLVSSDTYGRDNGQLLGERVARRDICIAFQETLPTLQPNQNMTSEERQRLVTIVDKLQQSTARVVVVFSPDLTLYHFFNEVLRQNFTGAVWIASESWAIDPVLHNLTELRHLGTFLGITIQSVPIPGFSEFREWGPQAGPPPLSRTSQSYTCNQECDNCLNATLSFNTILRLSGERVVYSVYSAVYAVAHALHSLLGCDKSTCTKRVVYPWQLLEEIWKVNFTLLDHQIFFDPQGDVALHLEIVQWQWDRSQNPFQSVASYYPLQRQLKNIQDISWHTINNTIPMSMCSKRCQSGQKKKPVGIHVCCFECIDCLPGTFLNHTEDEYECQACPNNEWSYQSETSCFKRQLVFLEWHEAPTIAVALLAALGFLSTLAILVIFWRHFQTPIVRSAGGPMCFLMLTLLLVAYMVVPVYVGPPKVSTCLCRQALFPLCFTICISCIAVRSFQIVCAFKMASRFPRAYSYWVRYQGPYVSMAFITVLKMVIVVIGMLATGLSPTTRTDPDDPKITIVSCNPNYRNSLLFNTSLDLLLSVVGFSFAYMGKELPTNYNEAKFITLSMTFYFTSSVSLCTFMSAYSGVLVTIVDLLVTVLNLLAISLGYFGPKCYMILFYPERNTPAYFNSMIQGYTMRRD
T1 sequence (Q7RTX0 21-852): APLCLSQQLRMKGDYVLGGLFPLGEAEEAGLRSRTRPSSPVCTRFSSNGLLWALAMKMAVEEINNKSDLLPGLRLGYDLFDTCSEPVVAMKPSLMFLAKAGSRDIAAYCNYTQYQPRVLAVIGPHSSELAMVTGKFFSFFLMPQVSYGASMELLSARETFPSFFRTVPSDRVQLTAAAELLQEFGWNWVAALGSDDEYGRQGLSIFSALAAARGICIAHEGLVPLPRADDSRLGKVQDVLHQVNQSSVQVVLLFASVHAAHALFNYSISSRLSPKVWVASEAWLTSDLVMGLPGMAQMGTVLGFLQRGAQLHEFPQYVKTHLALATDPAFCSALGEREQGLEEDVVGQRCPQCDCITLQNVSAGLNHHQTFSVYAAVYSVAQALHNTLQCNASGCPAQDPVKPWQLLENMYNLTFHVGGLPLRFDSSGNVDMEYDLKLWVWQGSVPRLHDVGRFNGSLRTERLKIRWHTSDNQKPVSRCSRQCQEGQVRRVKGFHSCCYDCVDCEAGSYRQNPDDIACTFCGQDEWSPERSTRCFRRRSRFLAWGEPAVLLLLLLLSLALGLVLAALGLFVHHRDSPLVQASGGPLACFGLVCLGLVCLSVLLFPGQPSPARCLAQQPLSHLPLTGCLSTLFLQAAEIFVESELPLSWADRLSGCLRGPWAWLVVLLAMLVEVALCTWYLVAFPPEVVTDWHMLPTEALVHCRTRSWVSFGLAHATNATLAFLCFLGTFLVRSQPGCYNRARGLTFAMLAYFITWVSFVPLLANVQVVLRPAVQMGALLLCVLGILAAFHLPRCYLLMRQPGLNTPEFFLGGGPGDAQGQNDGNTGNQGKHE


Molecular target: T1, human TAS1R2-I191V/TAS1R3-WT
Assay: Calcium mobilisation assay, TAS1R2 variant I191V with TAS1R3-WT
Assay type: cell-based
Conditions: for Max ΔF/F0: maximal signal amplitude
Excerpt: The coding sequences for TAS1R2 and TAS1R3 were commercially synthesised, and the human codon was optimised for expression in human cells. The coding sequences of human TAS1R2 and TAS1R3 were subcloned and inserted into the mammalian expression vectors pcDNA6/myc-HisA and pcDNA4/myc-HisA (Invitrogen; Thermo Fisher Scientific; Illkirch, France) between the EcoRI and NotI restriction sites, generating the plasmids pcDNA6-TAS1R2 and pcDNA4-TAS1R3, respectively. To increase protein expression in mammalian cells, an upstream start codon was used, which was a sequence called MAX, corresponding to the QBI SP163 element also described in pcDNA4-HisMax (Invitrogen; Thermo Fisher Scientific; Illkirch, France). To measure the expression level of the receptor by immunohistochemistry, we used the FLAG sequence ([…]) in the C-terminal position, which encodes the FLAG tag epitope. SNP variants of TAS1R2 and TAS1R3 were constructed based on […], respectively, using site-directed mutagenesis (Genewiz; Leipzig, Germany).
The HEK293T cells were kindly provided by Jay P. Slack (Givaudan Flavors Corporation; Cincinnati, OH, USA). HEK293T cells stably transfected with Gα16gust44 [43, 67] were seeded in poly-D-lysine-coated clear-bottom black 96-well plates (0.35 × 10^5 cells/well) in high-glucose DMEM supplemented with 2 mM GlutaMAX, 10% dialysed foetal bovine serum with penicillin/streptomycin and G418 (400 μg/mL) at 37 °C and 6.3% CO2 in a humidified atmosphere as previously reported. […] As a negative control, HEK293T cells were mock-transfected with the empty expression vector. After a further 24 h of incubation, the HEK293T cells were washed with C1 buffer (130 mM NaCl, 5 mM KCl, 10 mM HEPES pH 7.4 and 2 mM CaCl2). The 96-well plates containing the cells were then stimulated with sweet-tasting compounds. […] Different concentration ranges were tested depending on the sweet compound injected. The Ca^2+ changes were expressed as fractional changes in fluorescent light intensity: ΔF/F = (F − F0)/F0, where F was the fluorescent light intensity at each point, and F0 was the value of emitted fluorescent light prior to stimulus application. To calculate dose–response relationships, the changes in fluorescence upon stimulus application were averaged, mock-subtracted and baseline-corrected. The dose–response data obtained were adjusted using a 4-parameter logistic equation. The half-maximal effective concentrations (EC50 values) and maximal signal amplitudes were calculated using SigmaPlot software (version 15.0) (Systat Software; San Jose, CA, USA).
For in vitro calcium mobilisation assay performed on hTAS1R2-SNPs, hTAS1R3-SNPs and mTAS1R3-I60T, 6 to 7 concentrations were tested for each sweet compound, plus buffer alone. All concentration–receptor combinations were measured in duplicate, and each experiment was repeated at least 4 times (8 wells/concentration). Results were expressed for each concentration as ΔF/F mean ± SEM and represented as dose–response curves.

EC50 [µM] | R1 = Variant EC50/WT EC50 | Max ΔF/F0 | Molecule
87 ± 7 | 1.0 | 0.52 ± 0.02 | OC[C@H]1O[C@H](O[C@]2(CCl)O[C@H](CCl)[C@@H](O)[C@@H]2O)[C@H](O)[C@@H](O)[C@H]1Cl [Sucralose]
– | 1.7 | 1.12 ± 0.02 | brazzein (QDKCKKVYENYPVSKCQLANQCNYDCKLDKHARSGECFYDEKRNLQCICDYCEY; ends and bridges not checked; cysteine pairing not given here; UniProt P56552 1-54, looked up) [sweet-tasting protein obtained by recombinant production using the yeast Pichia pastoris]
– | 1.0 | 0.34 ± 0.02 | thaumatin
7.7 ± 0.9 | – | – | thaumatin (protein, Eight disulfides, sweet-tasting plant protein, E957) ATFEIVNRCSYTVWAAASKGDAALDAGGRQLNSGESWTINVEPGTKGGKIWARTDCYFDDSGSGICKTGDCGGLLRCKRFGRPPTTLAEFSLNQYGKDYIDISNIKGFNVPMDFSPTTRGCRGVRCAADIVGQCPAKLKAPGGGCNDACTVFQTSEYCCTTGKCGPTEYSRFFKRLCPDAFSYVLDKPTTVTCPGSSNYRVTFCPTA

The next lines start with the molecule.

Molecule | EC50 [µM] | R1 = Variant EC50/WT EC50 | Max ΔF/F0
CC1=CC(=O)NS(=O)(=O)O1 [Acesulfame K, acesulfame K] | 492 ± 30 | 0.7 | 0.27 ± 0.01
O=S(=O)(O)NC1CCCCC1 [Cyclamate, cyclamate] | 2020 ± 31 | – | –
C[C@H](CC[C@@H](O[C@@H]1O[C@H](CO[C@@H]2O[C@H](CO)[C@@H](O)[C@H](O)[C@H]2O)[C@@H](O)[C@H](O)[C@H]1O[C@@H]1O[C@H](CO)[C@@H](O)[C@H](O)[C@H]1O)C(C)(C)O)[C@H]1CC[C@@]2(C)[C@@H]3CC=C4[C@@H](CC[C@H](O[C@@H]5O[C@H](CO[C@@H]6O[C@H](CO)[C@@H](O)[C@H](O)[C@H]6O)[C@@H](O)[C@H](O)[C@H]5O)C4(C)C)[C@]3(C)[C@H](O)C[C@]12C [Mogroside V, mogroside V] | 19.2 ± 1.7 | 1.1 | 1.33 ± 0.04
COc1ccc(CCC(=O)c2c(O)cc(O[C@@H]3O[C@H](CO)[C@@H](O)[C@H](O)[C@H]3O[C@@H]3O[C@@H](C)[C@H](O)[C@@H](O)[C@H]3O)cc2O)cc1O [NHDC, neohesperidin dihydrochalcone] | 109 ± 4.6 | 1.4 | 0.73 ± 0.01
COC(=O)[C@H](Cc1ccccc1)NC(=O)[C@H](CC(=O)O)NCCC(C)(C)C [Neotame] | 0.84 ± 0.08 | 1.0 | 0.64 ± 0.02
C=C(C)[C@@H]1CC=C(/C=N/O)CC1 [Perillartine, perillartine] | 27.9 ± 0.5 | 1.6 | 1.27 ± 0.01
C=C1C[C@@]23CC[C@H]4[C@@](C)(CCC[C@@]4(C)C(=O)O[C@@H]4O[C@H](CO)[C@@H](O)[C@H](O[C@@H]5O[C@H](CO)[C@@H](O)[C@H](O)[C@H]5O)[C@H]4O[C@@H]4O[C@H](CO)[C@@H](O)[C@H](O)[C@H]4O)[C@@H]2CC[C@]1(O[C@@H]1O[C@H](CO)[C@@H](O)[C@H](O[C@@H]2O[C@H](CO)[C@@H](O)[C@H](O)[C@H]2O)[C@H]1O[C@@H]1O[C@H](CO)[C@@H](O)[C@H](O)[C@H]1O)C3 [Rebaudioside M, rebaudioside M] | 21 ± 0.4 | 1.2 | 1.10 ± 0.01
